{
  "source": "patent US20080132549A1",
  "about": "“Sulphur-Linked Imidazone Compounds for the Treatment of Hiv/Aids” (Pfizer Inc., priority 2004, published 2008)",
  "data": [
    {"target": "T1, purified recombinant HIV-1 reverse transcriptase (Human immunodeficiency virus type 1 group M subtype B, UniProt P04585)", "T1 construct": "purified recombinant HIV-1 reverse transcriptase (RT, EC, 2.7.7.49); made in house; host or cells: Escherichia coli", "experiment": "Inhibition of HIV-1 reverse transcriptase enzyme ([3H]-Flashplate enzyme assay, 384-well)", "assay_type": "biochemical", "settings": "recombinant HIV-1 RT expressed in Escherichia Coli; 5% final DMSO", "text": "The activity of the compounds of the invention as reverse transcriptase inhibitors may be measured using the following assay.\nInhibition of HIV-1 Reverse Transcriptase Enzyme\nThe reverse transcriptase activity of the compounds of the invention may be assayed as follows. Using the purified recombinant HIV-1 reverse transcriptase (RT, EC, 2.7.7.49) obtained by expression in Escherichia Coli, a 384-well plate assay system was established for assaying a large number of samples using the [3H]-Flashplate enzyme assay system (NEN-SMP 410A) following the manufacturer's recommendations. The compounds were dissolved in 100% DMSO and diluted with the appropriate buffer to a 5% final DMSO concentration. The inhibitory activity was expressed in percent inhibition relative to the DMSO control.", "units": {"IC50": "nM"}, "values": [
      {"smiles": "CCc1nc(CCO)n(CC)c1Sc1cc(C#N)cc(C#N)c1", "note": "[Example 1, 5-[3,5-Diethyl-2-(2-hydroxyethyl)-3H-imidazol-4-ylsulfanyl]-isophthalonitrile]", "IC50": 38},
      {"smiles": "CCc1nc(CCOC(N)=O)n(C)c1Sc1cc(C#N)cc(C#N)c1", "note": "[Example 4, Carbamic acid 2-[5-(3,5-dicyano-phenylsulfanyl)-4-ethyl-1-methyl-1H-imidazol-2-yl]-ethyl ester]", "IC50": 926},
      {"smiles": "CCn1c(CO)nc(C(F)(F)F)c1Sc1cc(C#N)cc(C#N)c1", "note": "[Example 9]", "IC50": 1160},
      {"smiles": "Cn1c(COC(N)=O)nc(C2CC2)c1Sc1cc(C#N)cc(C#N)c1", "note": "[Example 14, Carbamic acid 4-cyclopropyl-5-(3,5-dicyano-phenylsulfanyl)-1-methyl-1H-imidazol-2-ylmethyl ester]", "IC50": 353},
      {"smiles": "CCc1nc(CCOC)n(CC)c1Sc1cc(C#N)cc(C#N)c1", "note": "[Example 23, 5-[3,5-Diethyl-2-(2-methoxy-ethyl)-3H-imidazol-4-ylsulfanyl]-isophthalonitrile]", "IC50": 147},
      {"smiles": "Cc1nc(C(F)(F)F)c(Sc2cc(C#N)cc(C#N)c2)n1C", "note": "[Example 38]", "IC50": 1070},
      {"smiles": "Cc1nc(C2CC2)c(Sc2cc(C#N)cc(C#N)c2)n1Cc1ccncc1", "note": "[Example 40]", "IC50": 135}
    ]},
    {"system": "not given", "experiment": "not given", "settings": "not given", "units": {"melting point": "°C"}, "values": [
      {"smiles": "CCn1c(COC(N)=O)nc(C2CC2)c1Sc1cc(C#N)cc(C#N)c1", "melting point": "170 to 172"},
      {"smiles": "CCn1c(COC(N)=O)nc(C(C)C)c1Sc1cc(C#N)cc(C#N)c1", "melting point": "174 to 175"},
      {"smiles": "CCn1c(COC)nc(C(C)C)c1Sc1cc(C#N)cc(C#N)c1", "melting point": "156 to 158"},
      {"smiles": "CCc1nc(CN)n(CC)c1Sc1cc(C#N)cc(C#N)c1", "melting point": "133 to 135"},
      {"smiles": "CCc1nc(CO)n(CC)c1Sc1cc(C#N)cc(C#N)c1", "melting point": "141 to 143"},
      {"smiles": "CCn1c(CCO)nc(C2CC2)c1Sc1cc(C#N)cc(C#N)c1", "melting point": "122 to 124"},
      {"smiles": "CCn1c(CO)nc(C(C)C)c1Sc1cc(C#N)cc(C#N)c1", "melting point": "167 to 169"},
      {"smiles": "CCn1c(CO)nc(C(F)(F)F)c1Sc1cc(C#N)cc(C#N)c1", "note": "[Example 9]", "melting point": "184 to 186"}
    ]}
  ]
}
